This is an account of results in US20240148888A1, “INTERCELLULAR ADHESION MOLECULE 1 (ICAM1) ANTIBODY DRUG CONJUGATE AND USES THEREOF” (priority 2021, published 2024).

One test relates to refractory TNBC. The note with it: refractory TNBC patients; cited from earlier work.
In another test the test system is MDA-MB-231 cells. The note with it: reported in literature; cited from earlier work.
The target of test [1] is intercellular adhesion molecule 1 (ICAM1) from Homo sapiens (Homo sapiens) (UniProt P05362). Nature of the test: cell-based or functional assay.
In another test the test system is MDA-MB-436 tumors. Description: In vivo efficacy, orthotopic TNBC model, standard setting. Conditions: 5 mg/kg equivalent dosage.

intercellular adhesion molecule 1 (ICAM1) from Homo sapiens (Homo sapiens), sequence (P05362 28-532 limits assumed): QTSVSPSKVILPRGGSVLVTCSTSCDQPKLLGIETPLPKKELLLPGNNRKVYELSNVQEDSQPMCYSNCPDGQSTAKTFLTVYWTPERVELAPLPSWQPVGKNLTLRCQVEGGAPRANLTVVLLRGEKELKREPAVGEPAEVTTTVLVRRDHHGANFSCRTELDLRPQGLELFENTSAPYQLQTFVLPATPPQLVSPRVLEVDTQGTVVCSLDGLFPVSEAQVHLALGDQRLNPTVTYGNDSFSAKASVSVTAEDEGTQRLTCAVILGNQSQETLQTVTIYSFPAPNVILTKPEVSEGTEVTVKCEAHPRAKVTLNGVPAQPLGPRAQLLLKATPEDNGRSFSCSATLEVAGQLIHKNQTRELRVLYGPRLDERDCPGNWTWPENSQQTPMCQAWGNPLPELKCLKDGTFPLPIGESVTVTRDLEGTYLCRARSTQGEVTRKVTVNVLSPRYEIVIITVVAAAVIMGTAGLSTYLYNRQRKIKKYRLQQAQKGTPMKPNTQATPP
Protocol for MDA-MB-436 tumors: For the in vivo efficacy studies, orthotopic TNBC tumors (MDA-MB-436 or MDA-MB-231) were established in 6-8 weeks old female nude mice as described above. Tumors were grown to reach 100 mm^3 for standard setting treatment or 500 mm^3 for late-stage treatment. […] Tumor growth was monitored weekly using caliper. At the endpoint, animals were euthanized with CO2 and orthotopic tumors were excised to measure their mass.

Take sacituzumab govitecan: in the test on refractory TNBC, the Median progression-free survival is 5.5 months and the Response rate is recorded as around 33%. Besides, the “Resistance of MDA-MB-231 cells” value in the test with MDA-MB-231 cells was “resistant”.
For “Phycoerythrin (PE)-conjugated anti-human ICAM1 antibody (Clone: HCD54)”, in test [1], the cellular internalization rate in three TNBC cell lines relative to MCF10A cells (imaging flow cytometry) was in the range of 42 to 109 fold and the cellular internalization rate in three TNBC cell lines relative to non-targeting IgG (imaging flow cytometry) was in the range of 21 to 129 fold.
With `COc1cccc2c1C(=O)c1c(O)c3c(c(O)c1C2=O)C[C@@](O)(C(=O)CO)C[C@@H]3O[C@H]1C[C@H](N)[C@H](O)[C@H](C)O1` [free Dox, Doxorubicin], in the test with MDA-MB-436 tumors, the “Anti-tumor efficacy” value is on record as “very limited efficacy”.
